ChEMBL document CHEMBL1201862, “PubChem BioAssay data set” (2004)
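96-well plates; 48 h exposure; 5 concentrations. Endpoints by linear interpolation between flanking doses. Not reached: highest tested concentration assigned. GI50: concentration for 50% inhibition of growth.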 Calls of active or inactive are those of the source. Cut-off read from the data, not from the text of the source: active = GI50 up to about 1.1 µM and inactive = higher.

Legend:
Assay in all cases: NCI-60 cell line screen, 48 h
HCT-116 = tested on: HCT-116
ACHN = tested on: ACHN
SF-295 = tested on: SF-295
SK-MEL-28 = tested on: SK-MEL-28
SF-539 = tested on: SF-539
HCT-15 = tested on: HCT-15
SN12C = tested on: SN12C
HT-29 = tested on: HT-29
SR = tested on: SR
SK-MEL-5 = tested on: SK-MEL-5
786-0 = tested on: 786-0
OVCAR-5 = tested on: OVCAR-5
CCRF-CEM = tested on: CCRF-CEM
NCI/ADR-RES = tested on: NCI/ADR-RES
COLO 205 = tested on: COLO 205
OVCAR-3 = tested on: OVCAR-3
SW-620 = tested on: SW-620
OVCAR-4 = tested on: OVCAR-4
HOP-62 = tested on: HOP-62
A549 = tested on: A549
Hs-578T = tested on: Hs-578T
MDA-MB-231 = tested on: MDA-MB-231
SK-OV-3 = tested on: SK-OV-3
SK-MEL-2 = tested on: SK-MEL-2
K562 = tested on: K562
OVCAR-8 = tested on: OVCAR-8
SNB-75 = tested on: SNB-75
RXF 393 = tested on: RXF 393
IGROV-1 = tested on: IGROV-1
NCI-H226 = tested on: NCI-H226
SF-268 = tested on: SF-268
NCI-H522 = tested on: NCI-H522
NCI-H460 = tested on: NCI-H460
RPMI-8226 = tested on: RPMI-8226
T47D = tested on: T47D
M14 = tested on: M14
A498 = tested on: A498
UO-31 = tested on: UO-31
U-251 = tested on: U-251
TK-10 = tested on: TK-10
HL-60 = tested on: HL-60
MDA-N = tested on: MDA-N
HOP-92 = tested on: HOP-92
EKVX = tested on: EKVX
Malme-3M = tested on: Malme-3M
KM12 = tested on: KM12
MOLT-4 = tested on: MOLT-4
BT-549 = tested on: BT-549
LOX IMVI = tested on: LOX IMVI
CAKI-1 = tested on: CAKI-1
DU-145 = tested on: DU-145
NCI-H23 = tested on: NCI-H23
UACC-257 = tested on: UACC-257
HCC 2998 = tested on: HCC 2998
MDA-MB-435 = tested on: MDA-MB-435

O=C(NC1CCCCC1)N1CCNC1=S
GI50 (HCT-116): > 100 µM (inactive)
GI50 (ACHN): > 100 µM (inactive)
GI50 (SF-295): > 100 µM (inactive)
GI50 (SK-MEL-28): > 100 µM (inactive)
GI50 (SF-539): 65.6 µM (inactive)
GI50 (HCT-15): > 100 µM
GI50 (SN12C): > 100 µM (inactive)
GI50 (HT-29): > 100 µM (inactive)
GI50 (SR): > 100 µM (inactive)
GI50 (SK-MEL-5): > 100 µM (inactive)
GI50 (786-0): > 100 µM (inactive)
GI50 (OVCAR-5): > 100 µM (inactive)
GI50 (CCRF-CEM): > 100 µM (inactive)
GI50 (NCI/ADR-RES): > 100 µM (inactive)
GI50 (COLO 205): > 100 µM (inactive)
GI50 (OVCAR-3): > 100 µM (inactive)
GI50 (SW-620): > 100 µM (inactive)
GI50 (OVCAR-4): > 100 µM (inactive)
GI50 (HOP-62): > 100 µM (inactive)
GI50 (A549): > 100 µM (inactive)
GI50 (Hs-578T): > 100 µM (inactive)
GI50 (MDA-MB-231): 3.2 µM (inactive)
GI50 (SK-OV-3): > 100 µM (inactive)
GI50 (SK-MEL-2): 2.94 µM (inactive)
GI50 (K562): > 100 µM (inactive)
GI50 (OVCAR-8): > 100 µM (inactive)
GI50 (SNB-75): > 100 µM (inactive)
GI50 (RXF 393): 7.71 µM (inactive)
GI50 (IGROV-1): > 100 µM (inactive)
GI50 (NCI-H226): 45.3 µM (inactive)
GI50 (SF-268): > 100 µM (inactive)
GI50 (NCI-H522): > 100 µM (inactive)
GI50 (NCI-H460): > 100 µM (inactive)
GI50 (RPMI-8226): 65.6 µM (inactive)
GI50 (T47D): > 100 µM (inactive)
GI50 (M14): > 100 µM (inactive)
GI50 (A498): > 100 µM (inactive)
GI50 (UO-31): > 100 µM (inactive)
GI50 (U-251): 1.91 µM (inactive)
GI50 (TK-10): > 100 µM (inactive)
GI50 (HL-60): > 100 µM (inactive)
GI50 (MDA-N): > 100 µM (inactive)
GI50 (HOP-92): > 100 µM (inactive)
GI50 (EKVX): 9.53 µM (inactive)
GI50 (Malme-3M): > 100 µM (inactive)
GI50 (KM12): > 100 µM (inactive)
GI50 (MOLT-4): > 100 µM (inactive)
GI50 (BT-549): 66.4 µM (inactive)
GI50 (LOX IMVI): > 100 µM (inactive)
GI50 (CAKI-1): > 100 µM (inactive)
GI50 (DU-145): > 100 µM (inactive)
GI50 (NCI-H23): > 100 µM (inactive)
GI50 (UACC-257): > 100 µM (inactive)
GI50 (HCC 2998): > 100 µM (inactive)
GI50 (MDA-MB-435): > 100 µM (inactive)
